Columns and labels:
Assay type in all cases: in vivo
[1] = tested on: ivy-leaved morning glory (Ipomoea hederacea); test: Test G Post-Emergence Protocol; details: Ipomoea, post-emergence, 312 h, read-out: Morningglory, Ivy-leaved damage rating; for pest or weed control at 15.625 g/ha: 15.625 g ai/ha, evaluated after 13 days (100=total damage to plant; 0=no damage to plant); for pest or weed control at 62.5 g/ha: 62.5 g ai/ha; for pest or weed control at 62.5 g/ha / pest or weed control at 250 g/ha: evaluated after 13 days, 100=total damage to plant, 0=no damage to plant; for pest or weed control at 250 g/ha: 250 g ai/ha
Procedure, shortened: (§1)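 Seedlings grown 8 days in soil in a glasshouse (24/16 °C day/night, 14 h light, 65% humidity) were sprayed post-emergence with compound in acetone/water 50:50 plus 0.5% Tween 20 at 15.625, 62.5 or 250 g/ha. Damage was scored after 13 days on a 0–100 scale (100 = total damage).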

[2] = tested on: barnyardgrass (Echinochloa crus-galli); test: Test G Post-Emergence Protocol; details: Echinochloa crus-galli, post-emergence, 312 h, read-out: Barnyardgrass damage rating; for pest or weed control at 15.625 g/ha: 15.625 g ai/ha, evaluated after 13 days (100=total damage to plant; 0=no damage to plant); for pest or weed control at 62.5 g/ha: 62.5 g ai/ha; for pest or weed control at 62.5 g/ha / pest or weed control at 250 g/ha: evaluated after 13 days, 100=total damage to plant, 0=no damage to plant; for pest or weed control at 250 g/ha: 250 g ai/ha
Procedure, shortened: as §1

[3] = tested on: redroot pigweed (Amaranthus retroflexus); test: Test G Post-Emergence Protocol; details: Amaranthus retroflexus, post-emergence, 312 h, read-out: Pigweed, Redroot damage rating; for pest or weed control at 15.625 g/ha: 15.625 g ai/ha, evaluated after 13 days (100=total damage to plant; 0=no damage to plant); for pest or weed control at 62.5 g/ha: 62.5 g ai/ha; for pest or weed control at 62.5 g/ha / pest or weed control at 250 g/ha: evaluated after 13 days, 100=total damage to plant, 0=no damage to plant; for pest or weed control at 250 g/ha: 250 g ai/ha
Procedure, shortened: as §1

[4] = tested on: giant foxtail (Setaria faberi); test: Test G Post-Emergence Protocol; details: Setaria faberi, post-emergence, 312 h, read-out: Foxtail, Giant damage rating; for pest or weed control at 15.625 g/ha: 15.625 g ai/ha, evaluated after 13 days (100=total damage to plant; 0=no damage to plant); for pest or weed control at 62.5 g/ha: 62.5 g ai/ha; for pest or weed control at 62.5 g/ha / pest or weed control at 250 g/ha: evaluated after 13 days, 100=total damage to plant, 0=no damage to plant; for pest or weed control at 250 g/ha: 250 g ai/ha
Procedure, shortened: as §1

corn (Zea mays) [5] = test: Test G Post-Emergence Protocol; details: Zea mays, post-emergence, 312 h, read-out: Corn damage rating; for plant injury at 15.625 g/ha: 15.625 g ai/ha, evaluated after 13 days (100=total damage to plant; 0=no damage to plant); for plant injury at 62.5 g/ha: 62.5 g ai/ha; for plant injury at 62.5 g/ha / plant injury at 250 g/ha: evaluated after 13 days, 100=total damage to plant, 0=no damage to plant; for plant injury at 250 g/ha: 250 g ai/ha
Procedure, shortened: as §1

[6] = tested on: velvetleaf (Abutilon theophrasti); test: Test G Post-Emergence Protocol; details: Abutilon theophrasti, post-emergence, 312 h, read-out: Velvetleaf damage rating; for pest or weed control at 15.625 g/ha: 15.625 g ai/ha, evaluated after 13 days (100=total damage to plant; 0=no damage to plant); for pest or weed control at 62.5 g/ha: 62.5 g ai/ha; for pest or weed control at 62.5 g/ha / pest or weed control at 250 g/ha: evaluated after 13 days, 100=total damage to plant, 0=no damage to plant; for pest or weed control at 250 g/ha: 250 g ai/ha
Procedure, shortened: as §1

[7] = tested on: ivy-leaved morning glory (Ipomoea hederacea); test: Test G Pre-Emergence Protocol; details: Ipomoea, pre-emergence, 312 h, evaluated after 13 days; for pest or weed control at 15.625 g/ha: 15.625 g ai/ha; for pest or weed control at 15.625 g/ha / pest or weed control at 250 g/ha: read-out: Morningglory, Ivy-leaved damage rating (100=total damage to plant; 0=no damage to plant); for pest or weed control at 62.5 g/ha: 62.5 g ai/ha, 100=total damage to plant, 0=no damage to plant, read-out: Morningglory, Ivy-leaved damage rating; for pest or weed control at 250 g/ha: 250 g ai/ha
Procedure, shortened: (§2)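 Spraying took place one day after sowing, at 15.625, 62.5 or 250 g/ha, using an acetone/water (50:50) spray solution containing 0.5% Tween 20. Plants were kept under glasshouse conditions (24/16 °C, 14 h light, 65% humidity, watered twice daily), and injury was rated 0–100 at day 13.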

[8] = tested on: barnyardgrass (Echinochloa crus-galli); test: Test G Pre-Emergence Protocol; details: Echinochloa crus-galli, pre-emergence, 312 h, evaluated after 13 days; for pest or weed control at 15.625 g/ha: 15.625 g ai/ha; for pest or weed control at 15.625 g/ha / pest or weed control at 250 g/ha: read-out: Barnyardgrass damage rating (100=total damage to plant; 0=no damage to plant); for pest or weed control at 62.5 g/ha: 62.5 g ai/ha, 100=total damage to plant, 0=no damage to plant, read-out: Barnyardgrass damage rating; for pest or weed control at 250 g/ha: 250 g ai/ha
Procedure, shortened: as §2

[9] = tested on: redroot pigweed (Amaranthus retroflexus); test: Test G Pre-Emergence Protocol; details: Amaranthus retroflexus, pre-emergence, 312 h, evaluated after 13 days; for pest or weed control at 15.625 g/ha: 15.625 g ai/ha; for pest or weed control at 15.625 g/ha / pest or weed control at 250 g/ha: read-out: Pigweed, Redroot damage rating (100=total damage to plant; 0=no damage to plant); for pest or weed control at 62.5 g/ha: 62.5 g ai/ha, 100=total damage to plant, 0=no damage to plant, read-out: Pigweed, Redroot damage rating; for pest or weed control at 250 g/ha: 250 g ai/ha
Procedure, shortened: as §2

[10] = tested on: giant foxtail (Setaria faberi); test: Test G Pre-Emergence Protocol; details: Setaria faberi, pre-emergence, 312 h, evaluated after 13 days; for pest or weed control at 15.625 g/ha: 15.625 g ai/ha; for pest or weed control at 15.625 g/ha / pest or weed control at 250 g/ha: read-out: Foxtail, Giant damage rating (100=total damage to plant; 0=no damage to plant); for pest or weed control at 62.5 g/ha: 62.5 g ai/ha, 100=total damage to plant, 0=no damage to plant, read-out: Foxtail, Giant damage rating; for pest or weed control at 250 g/ha: 250 g ai/ha
Procedure, shortened: as §2

corn (Zea mays) [11] = test: Test G Pre-Emergence Protocol; details: Zea mays, pre-emergence, 312 h, evaluated after 13 days; for plant injury at 15.625 g/ha: 15.625 g ai/ha; for plant injury at 15.625 g/ha / plant injury at 250 g/ha: read-out: Corn damage rating (100=total damage to plant; 0=no damage to plant); for plant injury at 62.5 g/ha: 62.5 g ai/ha, 100=total damage to plant, 0=no damage to plant, read-out: Corn damage rating; for plant injury at 250 g/ha: 250 g ai/ha
Procedure, shortened: as §2

[12] = tested on: velvetleaf (Abutilon theophrasti); test: Test G Pre-Emergence Protocol; details: Abutilon theophrasti, pre-emergence, 312 h, evaluated after 13 days; for pest or weed control at 15.625 g/ha: 15.625 g ai/ha; for pest or weed control at 15.625 g/ha / pest or weed control at 250 g/ha: read-out: Velvetleaf damage rating (100=total damage to plant; 0=no damage to plant); for pest or weed control at 62.5 g/ha: 62.5 g ai/ha, 100=total damage to plant, 0=no damage to plant, read-out: Velvetleaf damage rating; for pest or weed control at 250 g/ha: 250 g ai/ha
Procedure, shortened: as §2

SMILES | pest or weed control at 15.625 g/ha [1] | pest or weed control at 62.5 g/ha [1] | pest or weed control at 250 g/ha [1] | pest or weed control at 15.625 g/ha [2] | pest or weed control at 62.5 g/ha [2] | pest or weed control at 250 g/ha [2] | pest or weed control at 15.625 g/ha [3] | pest or weed control at 62.5 g/ha [3] | pest or weed control at 250 g/ha [3] | pest or weed control at 15.625 g/ha [4] | pest or weed control at 62.5 g/ha [4] | pest or weed control at 250 g/ha [4] | plant injury at 15.625 g/ha (corn (Zea mays) [5]) | plant injury at 62.5 g/ha (corn (Zea mays) [5]) | plant injury at 250 g/ha (corn (Zea mays) [5]) | pest or weed control at 15.625 g/ha [6] | pest or weed control at 62.5 g/ha [6] | pest or weed control at 250 g/ha [6] | pest or weed control at 15.625 g/ha [7] | pest or weed control at 62.5 g/ha [7] | other results
CN1C[C@H](c2ccc(C(F)(F)F)cc2)[C@@H](C(=O)Nc2cnccc2[N+](=O)[O-])C1=O (racemic) [Compound 1729] | 0% | 0% | 0% | 0% | 0% | 0% | 0% | 0% | 0% | 0% | 0% | 0% | 0% | 0% | 0% | 0% | 0% | 0% | 0% | 0% | pest or weed control at 250 g/ha [7]: 0%; pest or weed control at 15.625 g/ha [8]: 0%; pest or weed control at 62.5 g/ha [8]: 0%; pest or weed control at 250 g/ha [8]: 0%; pest or weed control at 15.625 g/ha [9]: 0%; pest or weed control at 62.5 g/ha [9]: 0%; pest or weed control at 250 g/ha [9]: 0%; pest or weed control at 15.625 g/ha [10]: 0%; pest or weed control at 62.5 g/ha [10]: 0%; pest or weed control at 250 g/ha [10]: 0%; plant injury at 15.625 g/ha (corn (Zea mays) [11]): 0%; plant injury at 62.5 g/ha (corn (Zea mays) [11]): 0%; plant injury at 250 g/ha (corn (Zea mays) [11]): 0%; pest or weed control at 15.625 g/ha [12]: 0%; pest or weed control at 62.5 g/ha [12]: 0%; pest or weed control at 250 g/ha [12]: 0%
CC(C)OC(=O)c1cc([C@H]2CN(C)C(=O)[C@@H]2C(=O)Nc2ccccc2F)ccc1F (racemic) [Compound 1730] | 0% | 0% | 0% | 0% | 40% | 80% | 0% | 0% | 0% | 0% | 20% | 80% | 0% | 0% | 0% | 0% | 0% | 0% | 0% | 0% | pest or weed control at 250 g/ha [7]: 0%; pest or weed control at 15.625 g/ha [8]: 0%; pest or weed control at 62.5 g/ha [8]: 10%; pest or weed control at 250 g/ha [8]: 70%; pest or weed control at 15.625 g/ha [9]: 0%; pest or weed control at 62.5 g/ha [9]: 0%; pest or weed control at 250 g/ha [9]: 0%; pest or weed control at 15.625 g/ha [10]: 20%; pest or weed control at 62.5 g/ha [10]: 50%; pest or weed control at 250 g/ha [10]: 90%; plant injury at 15.625 g/ha (corn (Zea mays) [11]): 0%; plant injury at 62.5 g/ha (corn (Zea mays) [11]): 0%; plant injury at 250 g/ha (corn (Zea mays) [11]): 0%; pest or weed control at 15.625 g/ha [12]: 0%; pest or weed control at 62.5 g/ha [12]: 0%; pest or weed control at 250 g/ha [12]: 0%

Reference: patent US12077503B2, “Substituted cyclic amides and their use as herbicides” (FMC CORPORATION, priority 2015, dated 2024)
